The test can be described thus: Agonist activity at human IP receptor in human platelets assessed as inhibition of ADP-induced platelet aggregation.
For the compound `COc1ccc(-c2c(-c3ccccc3)cnn(CC3CCc4c(cccc4OCC(=O)O)C3)c2=O)cc1` (centres undefined), the IC50 (usually the concentration needed to halve the response being measured) stood at 330 nM. For `O=C(O)COc1cccc2c1CCC(Cn1ncc(-c3ccccc3)c(-c3ccc(F)cc3)c1=O)C2` (centres undefined) the value was 230 nM.

For `COc1cccc(-c2cnn(CC3CCc4c(cccc4OCC(=O)O)C3)c(=O)c2-c2ccccc2)c1F` (centres undefined), the IC50 turned out to be 64 nM. Under `O=C(O)COc1cccc2c1CCC(Cn1ncc(-c3cccc(F)c3F)c(-c3ccc(F)cc3)c1=O)C2` (centres undefined) stands 62 nM; under `O=C(O)COc1cccc2c1CC[C@@H](Cn1ncc(-c3cccc(F)c3F)c(-c3ccc(F)cc3)c1=O)C2`, 62 nM; under `O=C(O)COc1cccc2c1CCC(Cn1ncc(-c3cccc(F)c3F)c(-c3ccccc3)c1=O)C2` (centres undefined), 87 nM. For `O=C(O)COc1cccc2c1CCC(Cn1ncc(-c3ccccc3)c(-c3ccccc3)c1=O)C2` (centres undefined) the value was 325 nM. Regarding `O=C(O)COc1cccc2c1CCC(Cn1ncc(-c3cccc(F)c3)c(-c3ccccc3)c1=O)C2` (centres undefined), the IC50 came to 191 nM. In the case of `O=C(O)COc1cccc2c1CCC(Cn1ncc(-c3ccccc3F)c(-c3ccccc3)c1=O)C2` (centres undefined), the half-maximal inhibitory concentration (IC50) worked out at 220 nM.

Values taken from BindingDB's records for doi:10.1016/j.bmcl.2015.01.024 (Arena Pharmaceuticals, 2015).
